According to US10464925B2, “Methods to induce targeted protein degradation through bifunctional molecules” (Dana-Farber Cancer Institute, Inc., priority 2015, dated 2019):
Like-named read-outs stand apart in the source and are kept apart here.

What was measured:
[1] = test system: SUM159R; experiment: cells; details: 72 h
[2] = test system: SUM149; experiment: cells; details: SUM149, 72 h
[3] = test system: KP-N-YN; experiment: cells; details: 72 h
[4] = test system: NMC-G1; experiment: cells; details: 72 h
[5] = test system: MC116; experiment: cells; details: Homo sapiens, MC116, 72 h
[6] = test system: NCI-H838; experiment: cells; details: Homo sapiens, NCI-H838, 72 h
[7] = test system: SUM185; experiment: cells; details: 72 h
[8] = test system: KP2; experiment: cells; details: 72 h
[9] = test system: SUM159; experiment: cells; details: SUM159, 72 h
[10] = test system: HCC1315; experiment: cells; details: 72 h
[11] = test system: ZR-75-1_YMB-1; experiment: cells; details: 72 h
[12] = test system: MDA-MB-436; experiment: cells; details: Homo sapiens, MDA-MB-436, 72 h
[13] = test system: CCF-STTG1; experiment: Cell viability, ATPlite 72 hours; format: cell-based; details: Homo sapiens
[14] = test system: A549; experiment: cells; details: Homo sapiens, A549, 72 h
[15] = test system: LCLC-103H; experiment: cells; details: Homo sapiens, 72 h
[16] = test system: CUTL1; experiment: Cell viability, ATPlite 48 hours, CUTLL1; format: cell-based; details: CUTL1 cells
Procedure: (§1) ATP content was measured as a surrogate for cellular viability using ATPlite (Promega).

[17] = test system: HCT116; experiment: cells; details: Homo sapiens, HCT-116, 72 h
[18] = test system: MKN45; experiment: cells; details: Homo sapiens, MKN-45, 72 h
[19] = test system: MOLT4; experiment: Cell viability, ATPlite 48 hours, MOLT4; format: cell-based; details: Homo sapiens, MOLT-4; MOLT4 cells
Procedure: as §1

[20] = test system: SKMEL28; experiment: cells; details: Homo sapiens, SK-MEL-28, 72 h
[21] = test system: NGP; experiment: Cell viability, ATPlite 72 hours; format: cell-based; details: NGP; for IC50: read-out: IC50 (nM) NGP
[22] = test system: SUM149R; experiment: cells; details: 72 h
[23] = test system: Calu6; experiment: Cell viability, ATPlite 72 hours; format: cell-based; details: Homo sapiens, Calu-6
Procedure: Various cell lines were seeded into 384-well tissue culture-treated plates at a density of 2,000 cells per well in a volume of 50 μL/well. […] After 72 hours of incubation, cells were analyzed for cell viability using the ATPlite (PerkinElmer) Luminescence Assay Kit per the manufacturer's instructions, using ATP content as a surrogate for viable cell number. Luminescence was read on an EnVision 2104 Multilabel Plate Reader (PerkinElmer).

[24] = test system: KARPAS; experiment: cells; details: 72 h
[25] = biological target: BRDT (Homo sapiens, UniProt Q58F21); experiment: BRDT IC50 (Table 4); format: binding; details: read-out: IC50 (nM) BRDT
[26] = test system: T47D; experiment: cells; details: Homo sapiens, 72 h
[27] = test system: Cl-1; experiment: cells; details: 72 h
[28] = test system: PANC032; experiment: cells; details: 72 h
[29] = test system: SW1783; experiment: cells; details: Homo sapiens, SW1783, 72 h
[30] = test system: SBC-5; experiment: cells; details: Homo sapiens, SBC-5, 72 h
[31] = test system: MDA-MB-231; experiment: cells; details: Homo sapiens, MDA-MB-231, 72 h

Cc1sc2c(c1C)C(c1ccc(Cl)cc1)=N[C@@H](CC(=O)NCCCCCCCCNC(=O)COc1cccc3c1C(=O)N(C1CCC(=O)NC1=O)C3=O)c1nnc(C)n1-2 (some centres unmarked) [dBET6]
Emax ([1]; read-out: Emax (%) SUM159R): 36%
IC50 ([1]; read-out: IC50 (nM) SUM159R): 92.4 nM
Emax ([2]; read-out: Emax (%) SUM149): 27.9%
IC50 ([2]; read-out: IC50 (nM) SUM149): 131 nM
Emax ([3]; read-out: Emax (%) KP-N-YN): 42.8%
IC50 ([3]; read-out: IC50 (nM) KP-N-YN): 9.41 nM
Emax ([4]; read-out: Emax (%) NMC-G1): 36.6%
IC50 ([4]; read-out: IC50 (nM) NMC-G1): 70 nM
Emax ([5]; read-out: Emax (%) MC116): 0.32%
IC50 ([5]; read-out: IC50 (nM) MC116): 20.5 nM
Emax ([6]; read-out: Emax (%) NCI-H838): 32.2%
IC50 ([6]; read-out: IC50 (nM) NCI-H838): 52 nM
Emax ([7]; read-out: Emax (%) SUM185): 22.9%
IC50 ([7]; read-out: IC50 (nM) SUM185): 1.44 nM
Emax ([8]; read-out: Emax (%) KP2): 20.7%
IC50 ([8]; read-out: IC50 (nM) KP2): 513 nM
Emax ([9]; read-out: Emax (%) SUM159): 12%
IC50 ([9]; read-out: IC50 (nM) SUM159): 32.5 nM
Emax ([10]; read-out: Emax (%) HCC1315): 41.2%
IC50 ([10]; read-out: IC50 (nM) HCC1315): 1060 nM
Emax ([11]; read-out: Emax (%) ZR-75-1_YMB-1): 21.6%
IC50 ([11]; read-out: IC50 (nM) ZR-75-1_YMB-1): 23.5 nM
Emax ([12]; read-out: Emax (%) MDA-MB-436): 29.5%
IC50 ([12]; read-out: IC50 (nM) MDA-MB-436): 39.6 nM
Emax [13]: 45.8%
Emax ([14]; read-out: Emax (%) A549): 30.9%
IC50 ([14]; read-out: IC50 (nM) A549): 1900 nM
Emax ([15]; read-out: Emax (%) LCLC-103H): 24%
IC50 ([15]; read-out: IC50 (nM) LCLC-103H): 84.2 nM
IC50 [16]: 70.8 nM
Emax ([17]; read-out: Emax (%) HCT116): 26.9%
IC50 ([17]; read-out: IC50 (nM) HCT116): 154 nM
Emax ([18]; read-out: Emax (%) MKN45): 19.4%
IC50 ([18]; read-out: IC50 (nM) MKN45): 41.1 nM
IC50 [19]: 65.3 nM
Emax ([20]; read-out: Emax (%) SKMEL28): 59%
IC50 ([20]; read-out: IC50 (nM) SKMEL28): 474 nM
Emax ([21]; 72 h, read-out: Emax (%) NGP): 21.9%
IC50 ([21]; 72 h): 188 nM
IC50 [21]: 188 nM
Emax ([22]; read-out: Emax (%) SUM149R): 10.6%
IC50 ([22]; read-out: IC50 (nM) SUM149R): 18.5 nM
Emax [23]: 51.7%
IC50 [23]: 233 nM
Emax ([24]; read-out: Emax (%) KARPAS): 21%
IC50 ([24]; read-out: IC50 (nM) KARPAS): 2.18 nM
IC50 [25]: 56 nM
Emax ([26]; read-out: Emax (%) T47D): 49.4%
IC50 ([26]; read-out: IC50 (nM) T47D): 7.46 nM
Emax ([27]; read-out: Emax (%) Cl-1): 10.7%
IC50 ([27]; read-out: IC50 (nM) Cl-1): 23.3 nM
Emax ([28]; read-out: Emax (%) PANC032): 53.2%
IC50 ([28]; read-out: IC50 (nM) PANC032): 1450 nM
Emax ([29]; read-out: Emax (%) SW1783): 22.2%
IC50 ([29]; read-out: IC50 (nM) SW1783): 38.2 nM
Emax ([30]; read-out: Emax (%) SBC-5): 21.6%
IC50 ([30]; read-out: IC50 (nM) SBC-5): 841 nM
Emax ([31]; read-out: Emax (%) MDA-MB-231): 24.2%
IC50 ([31]; read-out: IC50 (nM) MDA-MB-231): 146 nM
